Measurements reported in patent US20240294545A1 (CSPC Zhongqi Pharmaceutical Technology (Shijiazhuang) Co., …, priority 2020, published 2024).

Experiments:
Format in all cases: biochemical
PI3Kα (p110α/p85α) = PI3Kα (p110α/p85α) (Homo sapiens (Human), UniProt P42336); assay: ADP-Glo kinase assay for PI3Kα; conditions: read-out: IC50 of kinase inhibitory activity, PI3K α
Experimental: (§1) 1.3 Determination of the Inhibitory Activities of Compounds on PI3Kα, PI3Kβ, PI3Kγ, and PI3Kδ Kinase: ADP-Glo Kinase Assay
(§2) Experimental procedures • (1) Preparation of 1× kinase buffer • 50 mM HEPES, pH 7.5 • 3 mM MgCl2 • 1 mM EGTA • 100 mM NaCl • 0.03% CHAPS • 2 mM DTT • (2) Preparation of test compound • 1) Dissolution and dilution of compound: • The compound was dissolved in DMSO to yield a stock solution. Before the assay, the stock solution of the compound was diluted with DMSO in a 384-well plate to yield a 100× solution at a concentration that is 100 times a target concentration for assay. • 50 μL of DMSO was added, respectively, into two blank wells in the same 384 well plate, corresponding to the total reaction control without compound and the blank control without enzyme. • 2) Preparation of test plate: 50 nL of the compound solution in each of the above wells was taken to a test plate. • (3) Kinase reaction • 1) PI3Kα, PI3Kβ, PI3Kγ, and PI3Kδ kinases were dissolved, respectively, in 1× kinase buffer to yield a 2× enzyme solution at a concentration that is twice the final concentration. 2.5 µL of the 2× enzyme solution was taken to each well of the test plate. The blank control without enzyme was added with 2.5 μL of the 1× kinase buffer instead of the enzyme solution. […]

ATM = ATM (Homo sapiens (Human), UniProt Q13315); assay: Caliper mobility shift assay for ATM; conditions: read-out: IC50 of inhibitory activity on ATM kinase
Experimental: 1.2 Determination of the Inhibitory Activities of Compounds on ATM: Caliper Mobility Shift Assay for ATM
To a 96-well plate, 98 μL of DMSO and 2 μL of the 10 mM stock solution were added and mixed evenly so that the concentration of the solution was 200 μM.
Based on the inhibitory rates of the compound at different concentrations, IC50 was calculated according to the formula: Y=Bottom+(Top−Bottom)/(1+(IC50/X)^HillSlope).

PI3Kδ (p110δ/p85δ) = PI3Kδ (p110δ/p85δ) (Homo sapiens (Human), UniProt O00329); assay: ADP-Glo kinase assay for PI3Kδ; conditions: read-out: IC50 of kinase inhibitory activity, PI3K δ
Experimental: as §1, §2

PI3Kβ (p110β) = assay: ADP-Glo kinase assay for PI3Kβ; conditions: read-out: IC50 of kinase inhibitory activity, PI3K β
Experimental: as §1, §2

PI3Kγ (pp110gamma) = PI3Kγ (pp110gamma) (Homo sapiens (Human), UniProt P48736); assay: ADP-Glo kinase assay for PI3Kγ; conditions: read-out: IC50 of kinase inhibitory activity, PI3K γ
Experimental: as §1, §2

DNA-PK = DNA-PK (Homo sapiens (Human), UniProt P78527); assay: ADP-Glo kinase assay for DNA-PK; conditions: read-out: IC50 of kinase inhibitory activity, DNA-PK
Experimental: 1.4 Determination of the Inhibitory Activities of Compounds on DNA-PK Kinase: ADP-Glo Kinase Assay
• (1) Preparation of 1× kinase buffer • 40 mM Tris, pH 7.5 • 0.0055% Brij-35 • 20 mM MgCl2 • 0.05 mM DTT • (2) Preparation of test compound • 1) The compound was dissolved in DMSO to yield a stock solution. Before the assay, the stock solution of the compound was diluted with DMSO to yield a 100× solution at a concentration that is 100 times a target concentration for assay. If the target concentration was […], the stock solution should be diluted to yield a 1 mM solution at this step. • 2) 100 μL of DMSO was added, respectively, into two blank wells in the same 96 well plate, corresponding to the total reaction control without compound and the blank control without enzyme. • 3) Preparation of test plate: 50 nL of the compound solution in each of the above wells was taken to a 384-well plate as a test plate. • (3) Kinase reaction • 1) DNA-PK kinase was dissolved in 1× kinase buffer to yield a 2× enzyme solution that is twice the final concentration. 2.5 μL of the 2× enzyme solution was taken to each well of the test plate. The blank control without enzyme was added with 2.5 μL of the 1× kinase buffer instead of the enzyme solution. […]

ATR = ATR (Homo sapiens (Human), UniProt Q13535); assay: Caliper mobility shift assay for ATR; conditions: read-out: IC50 of kinase inhibitory activity, ATR
Experimental: 1.6 Determination of the Inhibitory Activity of Compounds on ATR: Caliper Mobility Shift Assay for ATR
• (1) Preparation of 1× kinase buffer and reaction termination solution • 1) 1× kinase buffer • 50 mM HEPES, pH 7.5 • 0.0015% Brij-35 • […] • 2) Reaction termination solution • 100 mM HEPES, pH 7.5 • 0.015% Brij-35 • 0.2% Coating Reagent #3 • 50 mM EDTA • (2) Preparation of test compound • 1) The compound was dissolved in DMSO to yield a stock solution. Before the assay, to a 96-well plate, 30 μL of a 10 mM stock solution was taken and added with 60 μL of DMSO. […]

mTOR = mTOR (Homo sapiens (Human), UniProt P42345); assay: LanceUltra kinase assay for mTOR; conditions: read-out: IC50 of kinase inhibitory activity, mTOR

Chain of PI3Kδ (p110δ/p85δ) (O00329 whole entry): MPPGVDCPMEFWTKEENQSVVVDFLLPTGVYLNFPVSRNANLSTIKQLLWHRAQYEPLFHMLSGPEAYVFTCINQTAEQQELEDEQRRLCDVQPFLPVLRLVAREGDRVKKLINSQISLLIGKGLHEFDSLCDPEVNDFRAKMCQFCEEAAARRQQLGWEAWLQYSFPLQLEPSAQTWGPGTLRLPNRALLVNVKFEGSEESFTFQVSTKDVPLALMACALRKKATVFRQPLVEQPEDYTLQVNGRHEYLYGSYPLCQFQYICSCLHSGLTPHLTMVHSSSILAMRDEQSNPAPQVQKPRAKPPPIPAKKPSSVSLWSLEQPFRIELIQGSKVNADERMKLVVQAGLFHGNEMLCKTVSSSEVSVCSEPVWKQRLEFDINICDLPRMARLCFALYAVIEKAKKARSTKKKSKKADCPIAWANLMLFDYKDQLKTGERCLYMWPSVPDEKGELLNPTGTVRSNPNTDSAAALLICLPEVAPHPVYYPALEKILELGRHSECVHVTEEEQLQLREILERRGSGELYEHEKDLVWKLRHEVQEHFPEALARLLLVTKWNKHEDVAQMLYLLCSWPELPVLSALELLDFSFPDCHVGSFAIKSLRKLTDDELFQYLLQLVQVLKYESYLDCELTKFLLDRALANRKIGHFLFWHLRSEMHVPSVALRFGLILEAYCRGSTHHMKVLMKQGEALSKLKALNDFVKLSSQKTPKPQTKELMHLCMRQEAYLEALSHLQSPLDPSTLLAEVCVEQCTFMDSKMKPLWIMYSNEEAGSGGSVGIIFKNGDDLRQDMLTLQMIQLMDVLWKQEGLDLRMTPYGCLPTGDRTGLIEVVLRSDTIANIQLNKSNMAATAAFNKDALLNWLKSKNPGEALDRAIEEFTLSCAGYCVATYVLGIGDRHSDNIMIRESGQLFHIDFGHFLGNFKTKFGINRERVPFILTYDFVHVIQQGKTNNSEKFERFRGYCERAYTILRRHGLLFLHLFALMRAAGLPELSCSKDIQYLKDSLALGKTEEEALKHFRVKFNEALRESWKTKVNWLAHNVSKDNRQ
Chain of PI3Kδ (p110δ/p85δ) (P27986 whole entry partner): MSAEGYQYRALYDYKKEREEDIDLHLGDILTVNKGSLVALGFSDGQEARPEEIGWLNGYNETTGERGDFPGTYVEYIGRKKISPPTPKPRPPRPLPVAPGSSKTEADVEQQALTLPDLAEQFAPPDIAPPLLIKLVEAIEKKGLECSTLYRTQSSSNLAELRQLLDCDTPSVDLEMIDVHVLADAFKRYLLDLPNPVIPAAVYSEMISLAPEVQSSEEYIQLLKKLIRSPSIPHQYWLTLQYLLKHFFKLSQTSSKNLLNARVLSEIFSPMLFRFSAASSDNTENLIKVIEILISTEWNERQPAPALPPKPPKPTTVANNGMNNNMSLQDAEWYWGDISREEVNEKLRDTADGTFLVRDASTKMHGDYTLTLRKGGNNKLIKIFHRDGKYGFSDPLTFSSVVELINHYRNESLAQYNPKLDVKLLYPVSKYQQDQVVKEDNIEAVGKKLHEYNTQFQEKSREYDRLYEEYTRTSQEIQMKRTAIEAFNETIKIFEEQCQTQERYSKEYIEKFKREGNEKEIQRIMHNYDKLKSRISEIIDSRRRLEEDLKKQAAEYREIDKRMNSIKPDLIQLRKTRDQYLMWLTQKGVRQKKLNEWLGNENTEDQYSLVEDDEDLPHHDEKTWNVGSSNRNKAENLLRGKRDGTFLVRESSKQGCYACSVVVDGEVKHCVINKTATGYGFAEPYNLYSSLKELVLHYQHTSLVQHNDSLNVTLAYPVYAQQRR
Chain of PI3Kγ (pp110gamma) (P48736 whole entry): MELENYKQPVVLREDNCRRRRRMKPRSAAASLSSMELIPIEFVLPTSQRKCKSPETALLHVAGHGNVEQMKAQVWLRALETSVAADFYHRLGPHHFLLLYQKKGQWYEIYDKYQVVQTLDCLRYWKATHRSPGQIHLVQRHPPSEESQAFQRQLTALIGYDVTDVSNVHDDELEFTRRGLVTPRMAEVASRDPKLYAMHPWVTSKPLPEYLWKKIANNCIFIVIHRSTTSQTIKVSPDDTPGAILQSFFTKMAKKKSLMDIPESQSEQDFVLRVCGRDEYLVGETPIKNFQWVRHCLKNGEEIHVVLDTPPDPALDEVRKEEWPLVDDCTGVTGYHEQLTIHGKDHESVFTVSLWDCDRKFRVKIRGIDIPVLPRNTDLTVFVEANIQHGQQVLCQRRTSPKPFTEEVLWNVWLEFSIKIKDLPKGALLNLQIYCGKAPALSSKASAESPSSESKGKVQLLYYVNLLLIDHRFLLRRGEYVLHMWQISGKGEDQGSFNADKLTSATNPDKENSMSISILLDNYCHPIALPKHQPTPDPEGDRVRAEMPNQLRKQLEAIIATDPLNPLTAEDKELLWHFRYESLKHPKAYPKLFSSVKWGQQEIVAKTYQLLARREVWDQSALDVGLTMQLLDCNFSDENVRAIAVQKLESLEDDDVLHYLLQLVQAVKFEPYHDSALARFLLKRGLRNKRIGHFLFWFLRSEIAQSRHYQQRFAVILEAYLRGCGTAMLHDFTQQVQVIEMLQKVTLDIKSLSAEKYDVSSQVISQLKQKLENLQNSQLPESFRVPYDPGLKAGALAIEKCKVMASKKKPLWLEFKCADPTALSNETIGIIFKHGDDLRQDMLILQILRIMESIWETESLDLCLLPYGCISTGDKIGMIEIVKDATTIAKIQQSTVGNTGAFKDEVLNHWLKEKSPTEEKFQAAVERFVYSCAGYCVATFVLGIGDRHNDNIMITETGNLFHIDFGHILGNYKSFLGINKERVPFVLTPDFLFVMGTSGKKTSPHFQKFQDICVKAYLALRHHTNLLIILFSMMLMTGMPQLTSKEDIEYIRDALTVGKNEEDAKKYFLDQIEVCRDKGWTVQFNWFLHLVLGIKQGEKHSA
Chain of PI3Kα (p110α/p85α) (P42336 whole entry): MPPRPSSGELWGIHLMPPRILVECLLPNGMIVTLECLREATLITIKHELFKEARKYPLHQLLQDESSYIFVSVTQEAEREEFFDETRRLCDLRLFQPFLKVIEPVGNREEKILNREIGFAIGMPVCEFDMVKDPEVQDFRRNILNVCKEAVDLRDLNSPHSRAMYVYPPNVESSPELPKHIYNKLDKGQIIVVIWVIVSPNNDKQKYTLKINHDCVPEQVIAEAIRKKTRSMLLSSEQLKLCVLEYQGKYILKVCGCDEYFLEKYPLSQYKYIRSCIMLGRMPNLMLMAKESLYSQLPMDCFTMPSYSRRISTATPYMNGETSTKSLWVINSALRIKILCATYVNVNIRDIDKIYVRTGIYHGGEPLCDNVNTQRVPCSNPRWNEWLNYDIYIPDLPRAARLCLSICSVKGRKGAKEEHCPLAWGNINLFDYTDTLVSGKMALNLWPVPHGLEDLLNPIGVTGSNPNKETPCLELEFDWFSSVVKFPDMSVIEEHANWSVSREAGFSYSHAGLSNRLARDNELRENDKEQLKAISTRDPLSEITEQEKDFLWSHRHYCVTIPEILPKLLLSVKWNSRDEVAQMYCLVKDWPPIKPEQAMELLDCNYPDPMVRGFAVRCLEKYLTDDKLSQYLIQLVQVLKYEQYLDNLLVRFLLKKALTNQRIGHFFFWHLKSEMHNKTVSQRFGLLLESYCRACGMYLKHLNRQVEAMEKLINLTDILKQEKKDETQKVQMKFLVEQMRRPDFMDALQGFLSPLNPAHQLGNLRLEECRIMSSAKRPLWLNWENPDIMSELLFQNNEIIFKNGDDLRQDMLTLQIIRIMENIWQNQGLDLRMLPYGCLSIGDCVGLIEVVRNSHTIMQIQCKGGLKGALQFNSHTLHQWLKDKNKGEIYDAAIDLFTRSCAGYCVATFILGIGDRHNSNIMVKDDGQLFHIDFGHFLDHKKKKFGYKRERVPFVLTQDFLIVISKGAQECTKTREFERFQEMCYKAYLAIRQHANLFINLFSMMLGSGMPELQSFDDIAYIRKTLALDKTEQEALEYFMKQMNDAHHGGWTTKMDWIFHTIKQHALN
Chain of PI3Kα (p110α/p85α) (P27986 whole entry partner): as the sequence (P27986 whole entry partner) above

IC50 (PI3Kα (p110α/p85α)): 6.28 µM
IC50 (ATM): 0.00052 µM
IC50 (PI3Kδ (p110δ/p85δ)): > 10 µM
IC50 (PI3Kβ (p110β)): > 10 µM
IC50 (PI3Kγ (pp110gamma)): > 10 µM
IC50 (DNA-PK): 0.852 µM
IC50 (ATR): > 10 µM
IC50 (mTOR): 1.28 µM
Structure (SMILES): CC[C@@H]1COc2c(-c3ccc(OCCCN4CCCCC4)nc3)c(F)cc3ncc4c(c23)n1c(=O)n4C [Example A-22, (R)-10-ethyl-6-fluoro-2-methyl-7-(6-(3-(piperidin-1-yl)propoxy)pyridin-3-yl)-9,10-dihydro-8-oxa-2,4,10a-triazanaphtho[2,1,8-cde]azulen-1(2H)-one]
